Results from BigSolDB 2.1.

CCCCN(CCCC)CC(O)c1cc(Cl)cc2c1-c1ccc(Cl)cc1/C2=C/c1ccc(Cl)cc1 (stereo not given)
solubility (mole fraction)
Details | 278.15 K | 283.15 K | 288.15 K | 293.15 K | 298.15 K | 303.15 K | 308.15 K | 313.15 K | 318.15 K | 323.15 K
in ethyl acetate | 0.00178 | 0.00234 | 0.00317 | 0.00411 | 0.0054 | 0.00693 | 0.00903 | 0.0116 | 0.0152 | 0.0201
in methanol | 1.34e-05 | 1.7e-05 | 2.28e-05 | 3.04e-05 | 3.82e-05 | 4.97e-05 | 6.3e-05 | 8.2e-05 | 0.000106 | 0.000136
in n-butyl acetate | 0.00425 | 0.00533 | 0.00674 | 0.00866 | 0.0108 | 0.0138 | 0.0176 | 0.0223 | 0.0286 | 0.036
in n-pentyl acetate | 0.00475 | 0.00656 | 0.00849 | 0.011 | 0.0137 | 0.0168 | 0.0212 | 0.0253 | 0.0327 | 0.0407
in n-propyl acetate | 0.00281 | 0.00366 | 0.00486 | 0.00656 | 0.00841 | 0.0109 | 0.0139 | 0.018 | 0.0231 | 0.0305
